Experimental data reported in patent publication US10501460B2, “Heterocyclic compounds and uses thereof” (Plexxikon Inc., priority 2013, dated 2019).

Columns and labels:
bromodomain = experiment: Bromodomain cell assays of Example 40 (at least one of them); format: cell-based; settings: in at least one of the bromodomain cell assays described in Example 40
Text: (§1) Published bromodomain inhibitors JQ1 and iBET 151 have shown activity in variety of cancer cells such leukemia and lymphoma, multiple myeloma cells, NUT midline carcinoma and glioblastoma cells (Dawson M A et al. 2011; Delmore J E 2011; Chen Z et al. 2013; Filippakopoulos P et al. 2010; Mertz J A et al. 2011; Ott C J et al. 2012). In this study, we test compounds in different cancer cell lines. MV-4-11 and MOLM-13 are AML cell lines harboring a MLL-AF4 and MLL-AF9 translocation, respectively. MM.1S is a multiple myeloma cell line. SK-N-AS, IMR-32 and SK-N-BE(2) are neuroblastoma cell lines. IMR-32 and SK-N-BE(2) cell lines harbor MYCN amplifications. MV-4-11, MM.1S, IMR-32, SK-N-AS and SK-N-BE(2) were obtained from ATCC (IL, USA) and MOLM-13 were purchased from DSMZ (Braunschweig, German). Cells are cultured as recommended by their sources. For growth inhibition studies 3000 cells are seeded in wells of a 96-well plate in 75 μL of culture media. After several hours, growth media containing compounds of formula (I) are added to the wells. Compound at a maximal concentration of 5 mM was serially diluted 1:3 for a total of 8 point titration with DMSO as a control. A 1 μL aliquot of each dilution point is added to 249 μL growth media and 75 μL is added to each well containing cells, providing 10 μM compound at the maximum concentration point. The final concentration of DMSO in all wells is 0.2%. Cells are incubated for 72 hours, and 25 μL of CellTiter Glo Reagent (Promega Ga., USA) is added to each well. Plates are shaken for approximately 10 minutes and chemiluminescent signal is read on Tecan microplate reader. The measured luminescence correlates directly with cell number.
(§2) All data is normalized to the mean of eight DMSO high control wells on each plate. A four parameter curve fit of the following formula was then applied: Y=a+(b−a)/(1+(x/c)^d) Where ‘a’ is the minimum, ‘b’ is the maximum, ‘c’ is the pIC50 and ‘d’ is the Hill slope. […] Myc Reporter Assay
In MV-4-11 cells, BRD2, BRD3 and BRD4 bind to the promoter region of MYC and regulate its transcription (Dawson M A et al. 2011). The literature bromodomain inhibitor iBET 151 could disrupt BRD4 recruitment to the MYC promoter and subsequently downregulate c-myc transcription (Dawson M A et al. 2011). Myc protein is a transcription factor that heterodimerizes with an obligatory partner Max and regulates the transcription of genes important for cell proliferation, differentiation, and apoptosis. This Myc reporter assay is used to monitor the inhibitory effect of compound of formula (I) on Myc dependent gene expression. Effective compounds could have potential therapeutic effects in Myc-driven tumors.
The MV-4-11 Myc reporter cell line is established by infecting MV-4-11 with VSV-g pseudotyped lentivirus expressing the firefly luciferase gene under the control of a minimal (m) CMV promoter and tandem repeats of the E-box transcriptional response element (TRE) (Qiagen IL, USA) and selecting cells in […] Puromycin.
The MV-4-11 Myc reporter cell line is maintained in Iscove's Modified Dulbecco's Medium containing 10% FBS, 1% PenStep and 2.5 μg/ml Puromycin. Cells are incubated at 37° C. in a humidified atmosphere with 5% CO2. 25,000 cells are seeded in 96-well plate in 50 μL of culture media. After several hours, growth media containing 2× compounds are added to the wells. Compound at a maximal concentration of 5 mM is serially diluted 1:3 for a total of 8 point titration. A 1 μl aliquot of each dilution point is added to 249 μl growth media and 50 μl is added to each well containing cells, providing 10 μM compound at the maximum concentration point. DMSO treated cells serve as a high control and 10 μM JQ1 treated cells serve as a low control. Cells are incubated for a further 24 hours and 25 μL of CellTiter-Fluo Reagent (Promega Ga., USA) is added to each well. Plates are shaken for approximately 2 minutes and incubated at 37° C. for 0.5 hour. […]

MV-4-11 = experiment: Oncology cell growth assay MV-4-11 (CellTiter Glo, 72 hours); format: cell-based; settings: Homo sapiens, MV4-11, 72 h; MV-4-11 cell growth inhibitory activity, 3d
Text: as §1, §2
The following table provides data indicating the BRD4 biochemical inhibitory activity and MV-4-11 cell growth inhibitory activity for exemplary compounds as described herein.

IC50 (bromodomain) | IC50 (MV-4-11) | Structure (SMILES)
< 10 µM |  | CCc1[nH]c2ncc(-c3c(C)noc3C)cc2c1CC1CCC(F)(F)CC1 [P-0051, 4-[3-[(4,4-difluorocyclohexyl)methyl]-2-ethyl-1H-pyrrolo[2,3-b]pyridin-5-yl]-3,5-dimethyl-isoxazole]
< 10 µM |  | Cc1noc(C)c1-c1cnc2ccn(S(=O)(=O)N3CCCCC3)c2c1 [P-0067, 3,5-dimethyl-4-[1-(1-piperidylsulfonyl)pyrrolo [3,2-b]pyridin-6-yl] isoxazole]
 | ≤ 1 µM | CCn1cc(-c2cn(S(=O)(=O)c3ccccc3)c3cc(-c4c(C)noc4C)cnc23)cn1 [P-0124, 4-[1-(benzenesulfonyl)-3-(1-ethylpyrazol-4-yl)pyrrolo[3,2-b]pyridin-6-yl]-3,5-dimethyl-isoxazole]
 | ≤ 1 µM | Cc1noc(C)c1-c1cnc2c(-c3cnn(C(F)F)c3)cn(S(=O)(=O)C3CCCC3)c2c1 [P-0133, 4-[1-cyclopentylsulfonyl-3-[1-(difluoromethyl)pyrazol-4-yl]pyrrolo [3,2-b]pyridin-6-yl]-3,5-dimethyl-isoxazole]
 | ≤ 1 µM | Cc1noc(C)c1-c1cnc2c(C#CCO)cn(S(=O)(=O)c3ccccc3)c2c1 [P-0155, 3-[1-(benzenesulfonyl)-6-(3,5-dimethylisoxazol-4-yl)pyrrolo[3,2-b]pyridin-3-yl]prop-2-yn-1-ol]
< 10 µM |  | Cc1noc(C)c1-c1cnc2c(I)c(C(F)(F)F)[nH]c2c1 [P-0225, 4-[3-iodo-2-(trifluoromethyl)-1H-pyrrolo[3,2-b]pyridin-6-yl]-3,5-dimethyl-isoxazole]
< 10 µM |  | Cc1noc(C)c1-c1ccc2c(-c3cnn(C)c3)cn(Cc3ccccc3F)c2c1 [P-0226, 4-[1-[(2-fluorophenyl)methyl]-3-(1-methylpyrazol-4-yl)indol-6-yl]-3,5-dimethyl-isoxazole]
< 10 µM |  | Cc1noc(C)c1-c1ccc2c(-c3cnn(C)c3)cn(Cc3ccccc3Cl)c2c1 [P-0227, 4-[1-[(2-chlorophenyl)methyl]-3-(1-methylpyrazol-4-yl)indol-6-yl]-3,5-dimethyl-isoxazole]
< 10 µM |  | Cc1noc(C)c1-c1ccc2c(-c3cnn(C)c3)cn(Cc3ccccc3C(F)(F)F)c2c1 [P-0228, 3,5-dimethyl-4-[3-(1-methylpyrazol-4-yl)-1-[[2-(trifluoromethyl)phenyl]methyl]indol-6-yl]isoxazole]
< 10 µM |  | Cc1noc(C)c1-c1ccc2c(-c3cnn(C)c3)cn(Cc3c(F)cccc3F)c2c1 [P-0229, 4-[1-[(2,6-difluorophenyl)methyl]-3-(1-methylpyrazol-4-yl)indol-6-yl]-3,5-dimethyl-isoxazole]
< 10 µM |  | Cc1noc(C)c1-c1ccc2c(-c3cnn(C)c3)cn(C(C)c3ccccc3)c2c1 (centres unmarked) [P-0232, 3,5-dimethyl-4-[3-(1-methylpyrazol-4-yl)-1-(1-phenylethyl)indol-6-yl]isoxazole]
< 10 µM |  | [2H]C([2H])(F)C(c1ccccc1)n1cc(-c2cnn(C)c2)c2ncc(-c3c(C)noc3C)cc21 (centres unmarked) [P-0233, 4-[1-(2,2-dideuterio-2-fluoro-1-phenyl-ethyl)-3-(1-methylpyrazol-4-yl)pyrrolo[3,2-b]pyridin-6-yl]-3,5-dimethyl-isoxazole]
< 10 µM |  | Cc1noc(C)c1-c1cnc2c(I)cn(CC3(F)CCCCC3)c2c1 [P-0234, 4-[1-[(1-fluorocyclohexyl)methyl]-3-iodo-pyrrolo[3,2-b]pyridin-6-yl]-3,5-dimethyl-isoxazole]
< 10 µM |  | Cc1noc(C)c1-c1cnc2c(-c3cnn(C(F)F)c3)cn(CC3(F)CCCCC3)c2c1 [P-0235, 4-[3-[1-(difluoromethyl)pyrazol-4-yl]-1-[(1-fluorocyclohexyl)methyl]pyrrolo[3,2-b]pyridin-6-yl]-3,5-dimethyl-isoxazole]
< 10 µM |  | Cc1noc(C)c1-c1cnc2c(-c3cnn(C4CC4)c3)cn(CC3(F)CCCCC3)c2c1 [P-0236, 4-[3-(1-cyclopropylpyrazol-4-yl)-1-[(1-fluorocyclohexyl)methyl]pyrrolo[3,2-b]pyridin-6-yl]-3,5-dimethyl-isoxazole]
< 10 µM |  | Cc1noc(C)c1-c1cnc2c(-c3cnn(CC(F)(F)F)c3)cn(CC3(F)CCCCC3)c2c1 [P-0237, 4-[1-[(1-fluorocyclohexyl)methyl]-3-[1-(2,2,2-trifluoroethyl)pyrazol-4-yl]pyrrolo[3,2-b]pyridin-6-yl]-3,5-dimethyl-isoxazole]
< 10 µM |  | COCCn1cc(-c2cn(CC3(F)CCCCC3)c3cc(-c4c(C)noc4C)cnc23)cn1 [P-0238, 4-[1-[(1-fluorocyclohexyl)methyl]-3-[1-(2-methoxyethyl)pyrazol-4-yl]pyrrolo[3,2-b]pyridin-6-yl]-3,5-dimethyl-isoxazole]
< 10 µM |  | Cc1noc(C)c1-c1cnc2c(-c3cn[nH]c3)cn(CC3(F)CCCCC3)c2c1 [P-0239, 4-[1-[(1-fluorocyclohexyl)methyl]-3-(1H-pyrazol-4-yl)pyrrolo[3,2-b]pyridin-6-yl]-3,5-dimethyl-isoxazole]
< 10 µM |  | Cc1noc(C)c1-c1cnc2c(I)cn(CC3(F)CCC4(CC3)OCCO4)c2c1 [P-0240, 4-[1-[(8-fluoro-1,4-dioxaspiro[4.5]decan-8-yl)methyl]-3-iodo-pyrrolo[3,2-b]pyridin-6-yl]-3,5-dimethyl-isoxazole]
< 10 µM |  | Cc1noc(C)c1-c1cnc2c(-c3cnn(C(F)F)c3)cn(CC3(F)CCC4(CC3)OCCO4)c2c1 [P-0241, 4-[3-[1-(difluoromethyl)pyrazol-4-yl]-1-[(8-fluoro-1,4-dioxaspiro[4.5]decan-8-yl)methyl]pyrrolo[3,2-b]pyridin-6-yl]-3,5-dimethyl-isoxazole]
< 10 µM |  | Cc1noc(C)c1-c1cnc2c(-c3cnn(C(F)F)c3)cn(CC3(F)CCC(=O)CC3)c2c1 [P-0242, 4-[[3-[1-(difluoromethyl)pyrazol-4-yl]-6-(3,5-dimethylisoxazol-4-yl)pyrrolo[3,2-b]pyridin-1-yl]methyl]-4-fluoro-cyclohexanone]
< 10 µM |  | Cc1noc(C)c1-c1cnc2c(-c3cnn(C(F)F)c3)cn(CC3(F)CCC(F)(F)CC3)c2c1 [P-0243, 4-[3-[1-(difluoromethyl)pyrazol-4-yl]-1-[(1,4,4-trifluorocyclohexyl)methyl]pyrrolo[3,2-b]pyridin-6-yl]-3,5-dimethyl-isoxazole]
< 10 µM |  | Cc1noc(C)c1-c1cnc2c(-c3cnn(C(F)F)c3)cn(CC3(F)CC=C(F)CC3)c2c1 (centres unmarked) [P-0244, 4-[1-[(1,4-difluorocyclohex-3-en-1-yl)methyl]-3-[1-(difluoromethyl)pyrazol-4-yl]pyrrolo[3,2-b]pyridin-6-yl]-3,5-dimethyl-isoxazole]
< 10 µM |  | Cc1noc(C)c1-c1cnc2c(I)c(C(F)(F)F)n(C(C)c3ccccc3)c2c1 (centres unmarked) [P-0245, 4-[3-iodo-1-(1-phenylethyl)-2-(trifluoromethyl)pyrrolo[3,2-b]pyridin-6-yl]-3,5-dimethyl-isoxazole]
< 10 µM |  | Cc1noc(C)c1-c1cnc2[nH]ccc2c1 [P-0246, 3,5-dimethyl-4-(1H-pyrrolo[2,3-b]pyridin-5-yl)isoxazole]

Structure (SMILES) | IC50 (bromodomain) | IC50 (MV-4-11)
Cc1noc(C)c1-c1cnc2c(c1)c(C(O)C1CCC(F)(F)CC1)cn2C (centres unmarked) [P-0101, (4,4-difluorocyclohexyl)-[5-(3,5-dimethylisoxazol-4-yl)-1-methyl-pyrrolo[2,3-b]pyridin-3-yl]methanol] | < 10 µM | 
